Results as given in PMC5175396, “Cytotoxicity of Plumbagin, Rapanone and 12 other naturally occurring Quinones from Kenyan Flora towards human carcinoma cells” (BMC Pharmacology & Toxicology, 2016).
Like-named read-outs stand apart in the source and are kept apart here.

What was measured:
[1] = test system: A549 human non-small cell lung cancer (NSCLC) cell line; assay: Neutral red (NR) uptake cytotoxicity assay, A549; assay type: cell-based; conditions: for IC50: Homo sapiens, A549, 72 h, neutral red assay, 72 h incubation; for selectivity index A549: IC50 in CRL2120 normal fibroblasts divided by IC50 in A549
From the text: (§1) Six human cancer cell lines and one normal cell line were used in this study. They included A549 human non-small cell lung cancer (NSCLC) cell line, obtained from the Institute for Fermentation, Osaka (IFO, Japan) and provided by Prof. Dr. Tansu Koparal (Anadolu University, Eskisehir, Turkey), SPC212 human mesothelioma cell line obtained from American Type Culture Collection (ATCC) and provided by Dr. Asuman Demiroğlu Zergeroğlu (Gebze Technical University, Kocaeli, Turkey), DLD-1 colorectal adenocarcinoma cell lines obtained from ATCC (CCL-221), Caco2 colorectal adenocarcinoma cells (ATCC, HTB-37) obtained from the ŞAP Institute of Turkey (Ankara), HepG2 hepatocarcinoma cells (ATCC, HB-8065) and MCF-7 breast adenocarcinoma cells (ATCC, HTB-22) were provided by Prof. Dr. Tansu Koparal (Anadolu University, Eskisehir, Turkey). The normal CRL2120 human skin fibroblasts were obtained from ATCC [CCD1094Sk (ATCC, CRL-2120)]. The cells were maintained as a monolayer in DMEM medium (Sigma-aldrich, Munich, Germany) medium supplemented with 10% fetal calf serum and 1% penicillin (100 U/mL)-streptomycin (100 μg/mL) in a humidified 5% CO2 atmosphere at 37 °C.
(§2) The cytotoxicity of samples was performed by NR uptake assay as previously described. This method is based on the ability of viable cells to incorporate and bind the supravital dye NR in the lysosomes. […] Briefly, cells were detached by treatment with 0.25% trypsin/EDTA (Invitrogen) and an aliquot of 1 × 10^4 cells was placed in each well of a 96-well cell culture plate (Thermo Scientific, Germany) in a total volume of 200 μL. The cells were allowed to attach overnight and subsequently treated with different concentrations of the 14 compounds. Each of the studied samples was immediately added in varying concentrations in additional 100 μL of culture medium to obtain a total volume of 200 μL/well. After 72 h incubation in humidified 5% CO2 atmosphere at 37 °C, the medium was removed and 200 μL fresh medium containing 50 μg/mL NR was added to each well and incubation continued for an additional 3 h at 37 °C in 5% CO2 atmosphere. The dye medium was then removed and each well was then washed rapidly with 200 μL phosphate buffer saline (PBS) followed by addition of 200 μL of acetic acid-water-ethanol in water (1:49:50). The plates were kept for 15 min at room temperature to extract the dye and then shaken for a few minutes on a GFL 3012 shaker (Gesellschaft für Labortechnik mbH, Burgwedel, Germany). Absorbance was measured on ELx 808 Ultra Microplate Reader (Biotek) equipped with a 540 nm filter. Each assay was done at least three times, with three replicates each. The viability was evaluated based on a comparison with untreated cells. The IC50 values represent the sample’s concentrations required to inhibit 50% of cell proliferation and were calculated from a calibration curve by linear regression using Microsoft Excel.

[2] = test system: SPC212 human mesothelioma cell line; assay: Neutral red (NR) uptake cytotoxicity assay, SPC212; assay type: cell-based; conditions: for selectivity index SPC212: IC50 in CRL2120 normal fibroblasts divided by IC50 in SPC212
From the text: as §1
as §2, with “lysosomes. The procedure is cheaper and more sensitive than other cytotoxicity tests.” for “lysosomes.”

[3] = test system: six tested cancer cell lines (A549, SPC212, DLD-1, Caco-2, MCF-7, HepG2); assay: Neutral red uptake assay, statements over the six tested cancer cell lines; assay type: cell-based, human; conditions: for IC50: Homo sapiens, bound valid for all six cancer cell lines, neutral red assay
From the text: as §1
as §2, with “lysosomes. The procedure is cheaper and more sensitive than other cytotoxicity tests.” for “lysosomes.”

[4] = test system: normal CRL2120 human skin fibroblasts; assay: Neutral red (NR) uptake cytotoxicity assay, normal CRL2120 fibroblasts; assay type: cell-based; conditions: Skin fibroblast, 72 h incubation
From the text: as §1
as §2, with “lysosomes. The procedure is cheaper and more sensitive than other cytotoxicity tests.” for “lysosomes.”

[5] = test system: MCF-7 breast adenocarcinoma cells; assay: Neutral red (NR) uptake cytotoxicity assay, MCF-7; assay type: cell-based, human; conditions: for IC50: read-out: IC50 MCF-7; for selectivity index MCF-7: IC50 in CRL2120 normal fibroblasts divided by IC50 in MCF-7
From the text: as §1
as §2, with “lysosomes. The procedure is cheaper and more sensitive than other cytotoxicity tests.” for “lysosomes.”

[6] = test system: HepG2 hepatocarcinoma cells; assay: Neutral red (NR) uptake cytotoxicity assay, HepG2; assay type: cell-based, human; conditions: for IC50: Homo sapiens, read-out: IC50 HepG2; for selectivity index HepG2: IC50 in CRL2120 normal fibroblasts divided by IC50 in HepG2
From the text: as §1
as §2, with “lysosomes. The procedure is cheaper and more sensitive than other cytotoxicity tests.” for “lysosomes.”

[7] = test system: DLD-1 colorectal adenocarcinoma cell lines; assay: Neutral red (NR) uptake cytotoxicity assay, DLD-1; assay type: cell-based, human; conditions: for IC50: Homo sapiens, read-out: IC50 DLD-1; for selectivity index DLD-1: IC50 in CRL2120 normal fibroblasts divided by IC50 in DLD-1
From the text: as §1
as §2, with “lysosomes. The procedure is cheaper and more sensitive than other cytotoxicity tests.” for “lysosomes.”

[8] = test system: Caco2 colorectal adenocarcinoma cells; assay: Neutral red (NR) uptake cytotoxicity assay, Caco-2; assay type: cell-based, human; conditions: Homo sapiens, Caco-2; neutral red assay, 72 h incubation
From the text: as §1
as §2, with “lysosomes. The procedure is cheaper and more sensitive than other cytotoxicity tests.” for “lysosomes.”

[9] = Neutral red (NR) uptake cytotoxicity assay, Caco-2; assay type: cell-based, human; conditions: human; IC50 in CRL2120 normal fibroblasts divided by IC50 in Caco-2; read-out: selectivity index Caco-2 (converted)
From the text: as §1
as §2, with “lysosomes. The procedure is cheaper and more sensitive than other cytotoxicity tests.” for “lysosomes.”

MCF-7 cells [10] = assay: Measurement of reactive oxygen species (ROS), DCFH-DA; assay type: cell-based, human; conditions: at IC50, 24 h
Description: This is a cell-based assay for measuring hydroxyl, peroxyl, or other reactive oxygen species activity within a cell. The assay employs the cell-permeable fluorogenic probe 2′,7′-dichlorodihydrofluorescin diacetate (DCFH-DA). DCFH-DA is diffused into cells and is deacetylated by cellular esterases to non-fluorescent 2′,7′-dichlorodihydrofluorescin (DCFH), which is rapidly oxidized to highly fluorescent 2′,7′-dichlorofluorescein (DCF) by ROS. […] After addition of 100 μL 1× DCFH-DA/DMEM solution to cells and incubation at 37 °C for 30–60 min, the fluorescence was measured using SpectraMax® M5 Microplate Reader (Molecular Devices, Biberach, Germany) at 480/530 nm. All experiments were performed at least in triplicate.

MCF-7 cells [11] = assay: Flow cytometry cell cycle analysis and detection of apoptotic cells; assay type: cell-based, human; conditions: IC50, 72 h, non-treated cells 3.1%
Description: The cell-cycle analysis was performed by flow cytometry using BD cycletest^TM Plus DNA Kit Assay (BD Biosciences, San Jose, USA). The BD Cycletest™ Plus DNA kit provides a set of reagents for isolating and staining cell nuclei. Flow cytometric analysis of differentially stained cells is used to estimate the DNA index (DI) and cell-cycle phase distributions. Briefly, MCF-7 cells (3 mL, 1 × 10^5 cells/mL) were seeded into each well of 6-well plates and allowed to attach for 24 h. […] The untreated cells (control) were also included in the assay. They were further trypsinized and suspended in 1 mL PBS, then centrifuged at 400 g for 5 min at room temperature (RT). The cells were further processed according to the manufacturer protocol: addition of 250 μL of solution A (trypsin buffer), 10 min incubation at RT followed by the addition of 200 μL of solution B (trypsin inhibitor and RNAse buffer), 10 min incubation at RT followed by the addition of 200 μL of solution C (2–8 °C) (propidium iodide stain solution), 10 min on ice. The cells were further measured on a BD FACS Aria I Cell Sorter Flow Cytometer (Becton-Dickinson, Germany). For each sample, 10^4 cells were counted. For PI excitation, an argon-ion laser emitting at 488 nm was used. Cytographs were analyzed using BD FACSDiva™ Flow Cytometry Software Version 6.1.2 (Becton-Dickinson).

MCF-7 cells [12] = assay: Mitochondrial membrane potential (MMP) analysis, JC-1 staining, flow cytometry; assay type: cell-based, human; conditions: IC50 (C3), 72 h, control 4.3%
Description: The MMP was analyzed in MCF-7 cells by 5,5′,6,6′-tetrachloro-1,1′,3,3′-tetraethylbenzimidazolylcarbocyanine iodide) (JC-1; Biomol, Hamburg, Germany) staining as previously reported. […] Subsequently, cells were measured in a BD FACS Aria I Cell Sorter Flow Cytometer (Becton-Dickinson, Germany). The JC-1 signal was measured at an excitation of 561 nm (150 mW) and detected using a 586/15 nm band-pass filter. The signal was analyzed at 640 nm excitation (40 mW) and detected using a 730/45 nm bandpass filter. Cytographs were analyzed using BD FACSDiva™ Flow Cytometry Software Version 6.1.2 (Becton-Dickinson). All experiments were performed at least in triplicate.

[13] = Homo sapiens, 72 h, neutral red assay, 72 h incubation, read-out: IC50 SPC212
[14] = Homo sapiens, MCF7, 72 h, neutral red assay, 72 h incubation
[15] = HepG2, neutral red assay, 72 h incubation
[16] = DLD-1, neutral red assay, 72 h incubation
[17] = neutral red assay, 72 h incubation

SMILES | IC50 [1] [µM] | selectivity index A549 [1] | IC50 [2, 13] [µM] | selectivity index SPC212 [2] | IC50 [3] [µM] | IC50 [4] [µM] | IC50 [5, 14] [µM] | selectivity index MCF-7 [5] | IC50 [6, 15] [µM] | selectivity index HepG2 [6] | IC50 [7, 16] [µM] | selectivity index DLD-1 [7] | IC50 [8] [µM] | selectivity ratio at 72 h [9] | IC50 [5, 17] [µM] | also measured
CCCCCCCCCCCCCCCC1=C(O)C(=O)C=C(O)C1=O [Compound 10, 2,5-dihydroxy-3-pentadecyl-2,5-cyclohexadiene-1,4-dione] | 43.3 ± 2.72 | > 2.87 | < 10 | > 14.81 | < 100 | > 124 | 30.4 ± 8.64 | > 4.09 | 48.4 ± 3.73 | > 2.57 | 51.2 ± 5.54 | > 2.43 | 27.8 ± 2.03 | > 4.47 |  | IC50 ([2]; neutral red assay, 72 h incubation, read-out: IC50 SPC212): 8.39 ± 0.48 µM
CCCCCCCCCCCC1=C(O)C(=O)C=C(OC)C1=O [Compound 11, 2-hydroxy-5-methoxy-3-undecyl-1,4-benzoquinone] | 50.3 ± 2.6 | 0.88 | 38.3 ± 3.23 | 1.15 | < 100 | 44.2 ± 0.2 | 22.6 | 1.96 | 61.3 ± 5.53 | 0.72 | 45.4 ± 4.89 | 0.97 | 38.9 ± 2.35 | 1.14 | 22.6 ± 1.57 | 
CCCC/C=C\CCCCCCCCCCCCCC1=C(OC(C)=O)C(OC(C)=O)C(C)=C(OC(C)=O)C1OC(C)=O (centres unmarked) [Compound 13, 1,2,4,5-tetraacetate-3-methyl-6-(14-nonadecenyl)-cyclohexadi-2,5-diene] | 47.5 ± 3.56 | 1.96 | 36.2 ± 3.08 | 2.57 | < 100 | 93.2 ± 1.17 | < 10 | 10.08 | 18.2 ± 1.46 | 5.13 | 25.1 ± 1.5 | 3.72 | 24.6 ± 2.71 | 3.78 | 9.25 ± 0.16 | selectivity indexes (CRL2120 vs carcinoma cells), lower bound over the cancer cell lines ([3]; IC50 CRL2120 / IC50 cancer cell line): > 1.96
COc1cccc2c1C(=O)c1c(O)c3c(c(O)c1C2=O)C[C@@](O)(C(=O)CO)C[C@@H]3O[C@H]1C[C@H](N)[C@H](O)[C@H](C)O1 [Doxorubicin, reference compound] |  |  |  |  | < 100 | 0.59 ± 0.01 |  |  |  |  |  |  | 0.72 ± 0.13 |  |  | IC50 ([2]; Homo sapiens, 72 h, read-out: IC50 SPC#): 0.07 ± 0.01 µM; increase in ROS levels as compared with non-treated cells (MCF-7 cells [10]): more than 2 fold; Sub-G0/G1 (apoptotic) cells, % of cells (MCF-7 cells [11]): 60%; MMP, gate P2 (loss / depletion of MMP) (MCF-7 cells [12]): 26%; IC50 ([5]; Homo sapiens, MCF7, 72 h): 0.35 ± 0.05 µM; IC50 ([6]; HepG2, 72 h): 0.18 ± 0.03 µM; IC50 ([7]; DLD-1, 72 h): 0.37 ± 0.05 µM
